Tested on: HCT116 colorectal cancer cells
Assay: Cisplatin sensitization assay (96 h cell viability MTS);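 further: Test-compound concentration that lowers the Cisplatin IC50 by a set fold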
Type: cell-based
Settings: compound and Cisplatin added simultaneously, Cisplatin sensitization value
How it was run: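 Viability read by MTS (1 h at 37° C) after 96 h co-exposure at 37° C, 5% CO2. Test compound and cisplatin were dosed simultaneously in a full concentration matrix, each 2-fold serially diluted from 10 μM final; sensitization values binned in μM.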

SMILES: Cc1nccnc1-c1ccncc1NC(=O)c1c(N)nn2cc(F)cnc12 [I-C-62, 2-amino-6-fluoro-N-(4-(3-methylpyrazin-2-yl)pyridin-3-yl)pyrazolo[1,5-a]pyrimidine-3-carboxamide]
- Cisplatin Sensitization Assay: ++ (Cisplatin sensitization value>0.02 μM but <0.2 μM)

SMILES: CN1CC(NC(=O)C2CCN(c3c(F)cncc3NC(=O)c3c(N)nn4cc(F)cnc34)CC2)C1 [I-G-23, 2-amino-6-fluoro-N-(5-fluoro-4-(4-((1-methylazetidin-3-yl)carbamoyl)piperidin-1-yl)pyridin-3-yl)pyrazolo[1,5-a]pyrimidine-3-carboxamide]
- Cisplatin Sensitization Assay: +++ (Cisplatin sensitization value of <0.02 μM)

SMILES: Nc1nn2cc(F)cnc2c1C(=O)Nc1cncc(F)c1N1CCN2C(=O)CCC[C@@H]2C1 [I-N-280, (R)-2-amino-6-fluoro-N-(5-fluoro-4-(6-oxohexahydro-1H-pyrido[1,2-a]pyrazin-2(6H)-yl)pyridin-3-yl)pyrazolo[1,5-a]pyrimidine-3-carboxamide]
- Cisplatin Sensitization Assay: +++ (Cisplatin sensitization value of <0.02 μM)

SMILES: CN1CCC(NC(=O)C2CCN(c3c(F)cncc3NC(=O)c3c(N)nn4cc(F)cnc34)CC2)C1 (stereo not shown) [I-G-24, 2-amino-6-fluoro-N-(5-fluoro-4-(4-((1-methylpyrrolidin-3-yl)carbamoyl)piperidin-1-yl)pyridin-3-yl)pyrazolo[1,5-a]pyrimidine-3-carboxamide]
- Cisplatin Sensitization Assay: +++ (Cisplatin sensitization value of <0.02 μM)

SMILES: CS(=O)(=O)C1CN(C(=O)C2CCN(c3ccncc3NC(=O)c3c(N)nn4cc(F)cnc34)CC2)C1 [I-G-89, 2-amino-6-fluoro-N-(4-(4-(3-(methylsulfonyl)azetidine-1-carbonyl)piperidin-1-yl)pyridin-3-yl)pyrazolo[1,5-a]pyrimidine-3-carboxamide]
- Cisplatin Sensitization Assay: + (Cisplatin sensitization value>0.2 μM but <5 μM)

SMILES: CN1CC[C@@H](OC2CCN(c3ccncc3NC(=O)c3c(N)nn4cc(F)cnc34)CC2)C1 [I-N-131]
- Cisplatin Sensitization Assay: +++ (Cisplatin sensitization value of <0.02 μM)

SMILES: Nc1nn2cc(F)cnc2c1C(=O)Nc1cnccc1N1CCC(C(=O)N2CC(F)(F)C2)CC1 [I-G-80, 2-amino-N-(4-(4-(3,3-difluoroazetidine-1-carbonyl)piperidin-1-yl)pyridin-3-yl)-6-fluoropyrazolo[1,5-a]pyrimidine-3-carboxamide]
- Cisplatin Sensitization Assay: +++ (Cisplatin sensitization value of <0.02 μM)

SMILES: CNCCCN(C)C(=O)C1CCN(c2c(F)cncc2NC(=O)c2c(N)nn3cc(F)cnc23)CC1 [I-G-17]
- Cisplatin Sensitization Assay: + (Cisplatin sensitization value>0.2 μM but <5 μM)

SMILES: COc1cc(Cl)ncc1NC(=O)c1c(N)nn2cc(CC#N)cnc12 [I-O-27, 2-amino-N-(6-chloro-4-methoxypyridin-3-yl)-6-(cyanomethyl)pyrazolo[1,5-a]pyrimidine-3-carboxamide]
- Cisplatin Sensitization Assay: ++ (Cisplatin sensitization value>0.02 μM but <0.2 μM)

SMILES: N#CCc1cnc2c(C(=O)Nc3cnccc3-c3ccccc3)c(N)nn2c1 [I-C-6, 2-amino-6-(cyanomethyl)-N-(4-phenylpyridin-3-yl)pyrazolo[1,5-a]pyrimidine-3-carboxamide]
- Cisplatin Sensitization Assay: +++ (Cisplatin sensitization value of <0.02 μM)

SMILES: Cc1ncccc1-c1ccncc1NC(=O)c1c(N)nn2cc(F)cnc12 [I-C-20, 2-amino-6-fluoro-N-(2-methyl-[3,4′-bipyridin]-3′-yl)pyrazolo[1,5-a]pyrimidine-3-carboxamide]
- Cisplatin Sensitization Assay: +++ (Cisplatin sensitization value of <0.02 μM)

SMILES: Nc1nn2cc(F)cnc2c1C(=O)Nc1cnccc1-c1ccc(S(=O)(=O)N2CCC2)cc1 [I-C-64, 2-amino-N-(4-(4-(azetidin-1-ylsulfonyl)phenyl)pyridin-3-yl)-6-fluoropyrazolo[1,5-a]pyrimidine-3-carboxamide]
- Cisplatin Sensitization Assay: +++ (Cisplatin sensitization value of <0.02 μM)

SMILES: Nc1nn2cc(Cl)cnc2c1C(=O)Nc1cnccc1OCCN1CCOCC1 [I-O-60, 2-amino-6-chloro-N-(4-(2-morpholinoethoxy)pyridin-3-yl)pyrazolo[1,5-a]pyrimidine-3-carboxamide]
- Cisplatin Sensitization Assay: ++ (Cisplatin sensitization value>0.02 μM but <0.2 μM)

SMILES: CN1CCC(NC(=O)C2CCN(c3c(F)cncc3NC(=O)c3c(N)nn4cc(F)cnc34)CC2)CC1 [I-G-20, 2-amino-6-fluoro-N-(5-fluoro-4-(4-((1-methylpiperidin-4-yl)carbamoyl)piperidin-1-yl)pyridin-3-yl)pyrazolo[1,5-a]pyrimidine-3-carboxamide]
- Cisplatin Sensitization Assay: + (Cisplatin sensitization value>0.2 μM but <5 μM)

SMILES: CCOC1CN(C(=O)C2CCN(c3ccncc3NC(=O)c3c(N)nn4cc(F)cnc34)CC2)C1 [I-G-91, 2-amino-N-(4-(4-(3-ethoxyazetidine-1-carbonyl)piperidin-1-yl)pyridin-3-yl)-6-fluoropyrazolo[1,5-a]pyrimidine-3-carboxamide]
- Cisplatin Sensitization Assay: +++ (Cisplatin sensitization value of <0.02 μM)

SMILES: CS(=O)(=O)CC1CCN(c2ccncc2NC(=O)c2c(N)nn3cc(F)cnc23)CC1 [I-N-215, 2-amino-6-fluoro-N-(4-(4-((methylsulfonyl)methyl)piperidin-1-yl)pyridin-3-yl)pyrazolo[1,5-a]pyrimidine-3-carboxamide]
- Cisplatin Sensitization Assay: +++ (Cisplatin sensitization value of <0.02 μM)

SMILES: CCN1CCCC1C(=O)N1CCN(c2c(F)cncc2NC(=O)c2c(N)nn3cc(F)cnc23)CC1 (stereo not shown) [I-N-185, 2-amino-N-(4-(4-(1-ethylpyrrolidine-2-carbonyl)piperazin-1-yl)-5-fluoropyridin-3-yl)-6-fluoropyrazolo[1,5-a]pyrimidine-3-carboxamide]
- Cisplatin Sensitization Assay: ++ (Cisplatin sensitization value>0.02 μM but <0.2 μM)

SMILES: CNCCc1cnn(-c2ccncc2NC(=O)c2c(N)nn3cc(F)cnc23)c1 [I-N-8, 2-amino-6-fluoro-N-(4-(4-(2-(methylamino)ethyl)-1H-pyrazol-1-yl)pyridin-3-yl)pyrazolo[1,5-a]pyrimidine-3-carboxamide]
- Cisplatin Sensitization Assay: + (Cisplatin sensitization value>0.2 μM but <5 μM)

SMILES: CN1CCC(c2ccncc2NC(=O)c2c(N)nn3cc(F)cnc23)CC1=O (stereo not shown) [I-C-73, 2-amino-6-fluoro-N-(4-(1-methyl-2-oxopiperidin-4-yl)pyridin-3-yl)pyrazolo[1,5-a]pyrimidine-3-carboxamide]
- Cisplatin Sensitization Assay: ++ (Cisplatin sensitization value>0.02 μM but <0.2 μM)

SMILES: Nc1nn2cc(F)cnc2c1C(=O)Nc1cncc(C2CC2)c1N1CCN(C2COC2)CC1 [I-N-32, 2-amino-N-(5-cyclopropyl-4-(4-(oxetan-3-yl)piperazin-1-yl)pyridin-3-yl)-6-fluoropyrazolo[1,5-a]pyrimidine-3-carboxamide]
- Cisplatin Sensitization Assay: ++ (Cisplatin sensitization value>0.02 μM but <0.2 μM)

SMILES: Nc1nn2cc(F)cnc2c1C(=O)Nc1cncc(F)c1N1CCN(S(=O)(=O)C2COC2)CC1 [I-N-201]
- Cisplatin Sensitization Assay: +++ (Cisplatin sensitization value of <0.02 μM)

SMILES: CN1CCC[C@@H]1COc1ccncc1NC(=O)c1c(N)nn2cc(Cl)cnc12 [I-O-49, (R)-2-amino-6-chloro-N-(4-((1-methylpyrrolidin-2-yl)methoxy)pyridin-3-yl)pyrazolo[1,5-a]pyrimidine-3-carboxamide]
- Cisplatin Sensitization Assay: + (Cisplatin sensitization value>0.2 μM but <5 μM)

SMILES: N#CCc1cnc2c(C(=O)Nc3cnccc3O[C@H]3CCOC3)c(N)nn2c1 [I-O-42, (S)-2-amino-6-(cyanomethyl)-N-(4-((tetrahydrofuran-3-yl)oxy)pyridin-3-yl)pyrazolo[1,5-a]pyrimidine-3-carboxamide]
- Cisplatin Sensitization Assay: +++ (Cisplatin sensitization value of <0.02 μM)

SMILES: CN(C)CC1(O)CCN(c2ccncc2NC(=O)c2c(N)nn3cc(Cl)cnc23)CC1 [I-N-36, 2-amino-6-chloro-N-(4-(4-((dimethylamino)methyl)-4-hydroxypiperidin-1-yl)pyridin-3-yl)pyrazolo[1,5-a]pyrimidine-3-carboxamide]
- Cisplatin Sensitization Assay: ++ (Cisplatin sensitization value>0.02 μM but <0.2 μM)

SMILES: Nc1nn2cc(F)cnc2c1C(=O)Nc1cncc(F)c1N1CCC(C(=O)N2CCNCC2)CC1 [I-G-12, 2-amino-6-fluoro-N-(5-fluoro-4-(4-(piperazine-1-carbonyl)piperidin-1-yl)pyridin-3-yl)pyrazolo[1,5-a]pyrimidine-3-carboxamide]
- Cisplatin Sensitization Assay: +++ (Cisplatin sensitization value of <0.02 μM)

SMILES: CN1CCN(C(=O)c2ccc(-c3c(F)cncc3NC(=O)c3c(N)nn4cc(F)cnc34)cc2)CC1 [I-C-43, 2-amino-6-fluoro-N-(5-fluoro-4-(4-(4-methylpiperazine-1-carbonyl)phenyl)pyridin-3-yl)pyrazolo[1,5-a]pyrimidine-3-carboxamide]
- Cisplatin Sensitization Assay: +++ (Cisplatin sensitization value of <0.02 μM)

SMILES: Cc1ccncc1NC(=O)c1c(N)nn2cc(F)cnc12 [I-C-4, 2-amino-6-fluoro-N-(4-methylpyridin-3-yl)pyrazolo[1,5-a]pyrimidine-3-carboxamide]
- Cisplatin Sensitization Assay: ++ (Cisplatin sensitization value>0.02 μM but <0.2 μM)

SMILES: CC(C)(C#N)c1cnc2c(C(=O)Nc3cncc(F)c3N3CCN(C4COC4)CC3)c(N)nn2c1 [I-N-144]
- Cisplatin Sensitization Assay: +++ (Cisplatin sensitization value of <0.02 μM)

SMILES: Nc1nn2cc(F)cnc2c1C(=O)Nc1cnccc1OC1CCOC1 (racemic) [I-O-15, (R,S)-2-amino-6-fluoro-N-(4-((tetrahydrofuran-3-yl)oxy)pyridin-3-yl)pyrazolo[1,5-a]pyrimidine-3-carboxamide]
- Cisplatin Sensitization Assay: +++ (Cisplatin sensitization value of <0.02 μM)

SMILES: Nc1nn2cc(F)cnc2c1C(=O)Nc1cncc(Cl)c1N1CCN(C2CCOC2)CC1 (stereo not shown) [I-N-124, 2-amino-N-(5-chloro-4-(4-(tetrahydrofuran-3-yl)piperazin-1-yl)pyridin-3-yl)-6-fluoropyrazolo[1,5-a]pyrimidine-3-carboxamide]
- Cisplatin Sensitization Assay: +++ (Cisplatin sensitization value of <0.02 μM)

SMILES: CN(C)CCNC(=O)C1CCN(c2c(F)cncc2NC(=O)c2c(N)nn3cc(F)cnc23)CC1 [I-G-30, 2-amino-N-(4-(4-((2-(dimethylamino)ethyl)carbamoyl)piperidin-1-yl)-5-fluoropyridin-3-yl)-6-fluoropyrazolo[1,5-a]pyrimidine-3-carboxamide]
- Cisplatin Sensitization Assay: +++ (Cisplatin sensitization value of <0.02 μM)

From patent US11370798B2 (Vertex Pharmaceuticals Incorporated, priority 2012, dated 2022)
